Assay results published in patent publication US7786141B2 (Vertex Pharmaceuticals Incorporated, priority 2004, dated 2010).
Read-outs that look alike come from different tables or passages of the source.

What was measured:
M1 muscarinic receptor = target: T1, M1 muscarinic receptor (Homo sapiens, UniProt P11229); assay: Functional mobilization of intracellular calcium (FLIPR) in M1-CHO cells; format: cell-based
T1 construct: expressed in transfected cells; host or cells: CHO (M1-CHO)
T1 sequence (P11229 1-460): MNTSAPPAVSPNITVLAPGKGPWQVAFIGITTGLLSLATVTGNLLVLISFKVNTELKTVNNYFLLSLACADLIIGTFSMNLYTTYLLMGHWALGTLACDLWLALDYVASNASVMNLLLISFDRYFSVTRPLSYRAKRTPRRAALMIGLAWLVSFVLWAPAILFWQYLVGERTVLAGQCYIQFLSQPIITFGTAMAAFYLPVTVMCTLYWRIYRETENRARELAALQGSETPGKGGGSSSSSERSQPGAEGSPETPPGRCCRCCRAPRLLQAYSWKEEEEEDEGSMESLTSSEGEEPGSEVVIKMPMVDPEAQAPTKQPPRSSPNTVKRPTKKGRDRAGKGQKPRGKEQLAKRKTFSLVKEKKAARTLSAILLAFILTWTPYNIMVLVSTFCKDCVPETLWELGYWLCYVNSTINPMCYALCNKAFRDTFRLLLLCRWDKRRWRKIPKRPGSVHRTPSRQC
Experimental: (§1) Functional Mobilization of Intracellular Calcium to Determine Muscarinic Receptor Activity:
(§2) CHO cells expressing muscarinic receptors (M1 to M5) are grown as monolayers in tissue culture flasks at 37° C. in a humidified atmosphere containing 5% CO2 and passaged every 3-5 days. The growth media is Dulbecco's modified eagles medium (DMEM, Gibco Cat# 12430-054), containing 25 mM Hepes and supplemented with Fetal Bovine Serum (Hyclone, cat# SH30071.03), 0.1 mM of MEM non-essential amino acids (GIBCO, Cat# 11140-050), 1 mM MEM Sodium Pyruvate (GIBCO Cat# 11360-070) and 100 units/ml of Penicillin G and 100 μg/ml of Streptomycin (GIBCO Cat# 15140-122). The recombinant muscarinic receptor cell lines are grown under antibiotic pressure with media containing 25 μg/ml zeocin and 500 μg/ml G418 (M1-CHO), 4 μg/ml puromycin, 50 μg/ml zeocin and 2.5 μg/ml blasticidin (M2 and M4-CHO) or 50 μg/ml zeocin and 4 μg/ml puromycin (M3 and M5-CHO).
(§3) Cells are harvested at 80-90% confluence using Versene (GIBCO Cat# 15040-066), collected by centrifugation and seeded 18-24 hrs prior to running the calcium assay at a density of 5,000 cells/well in back-walled, clear-bottomed 384-well plates (BD Biocoat, poly-D-lysine, Cat#356663). The day of the experiment, the cells are washed with a plate washer (Bioteck Instruments, ELX 405) using bath 1 buffer (140-mM NaCl, 4.5-mM KCl, 2-mM CaCl2, 1-mM MgCl2, 10-mM Hepes-Na, 10-mM Glucose, pH 7.4, with NaOH) containing 1 mM Probenecid. Next, the calcium dye Fluo-3 (25 μl/well of Fluo-3 AM at 4 μM, Molecular Probes F-1241, in Bath 1 buffer containing 1 mM Probenecid) is added to the 25 μl of Bath 1 remaining in each well after the plate wash and the dye is loaded at 37° C. in the tissue culture incubator for 60-90 min. The fluorescent dye is removed using the plate washer with Bath 1 containing 1 mM Probenecid, leaving 25 μl/well of this solution after the wash. Alternatively, cells can be loaded with the calcium indicator from Molecular Devices (Calcium 3 Assay Reagents, Cat # R7181) adding 5 μl of a 5× solution dye in Bath 1 containing 1 mM Probenecid (10 ml per dye flask cat# R7182 to generate a solution 20×) to 20 μl of the same buffer. After loading for 60 min, the experiment can be run without having to remove the dye.
(§4) Compounds are prepared at a 2× fold concentration in a 96-well plate (round bottom, Costar Corning cat# 3656), by reconstituting the pre-spotted compounds in bath 1 containing 1 mM probenecid. The final concentration DMSO is 0.5%, and the amount of DMSO is normalized across the assay plate. To determine an agonist action of the compounds on muscarinic receptors, the reconstituted compounds are added (25 μl compound/well) to the cell assay plate (containing 25 μl/well) using the multi-channel robotic system of the FLIPR 3 Instrument (Molecular Devices, Sunnyvale, Calif.). To determine a functional inhibitory action of the compounds on muscarinic receptors, the reconstituted compounds are added (25 μl compound/well) to the assay plate and pre-incubated for 15 min prior to adding 25 μl of Carbachol at 3× the EC80 for each muscarinic subtype. Alternatively, the compounds can be co-applied simultaneously with the agonist. In both assay modes, the fluorescence is recorded for 60 sec (excitation wavelength is […] and emission wavelength 540 nm) using the FLIPR 3 instrument.
(§5) The potency, efficacy and selectivity of the muscarinic compounds were evaluated by screening the compound activity across the whole family (M1 to M5 cells). Compounds were also screened for activity on other proteins such as other GPCRs and ion channels to determine selectivity on M4 receptors.

M4 muscarinic receptor = target: T2, M4 muscarinic receptor (Homo sapiens, UniProt P08173); assay: Functional mobilization of intracellular calcium (FLIPR) in M4-CHO cells; format: cell-based
T2 construct: expressed in transfected cells; host or cells: CHO (M4-CHO)
T2 sequence (P08173 1-479): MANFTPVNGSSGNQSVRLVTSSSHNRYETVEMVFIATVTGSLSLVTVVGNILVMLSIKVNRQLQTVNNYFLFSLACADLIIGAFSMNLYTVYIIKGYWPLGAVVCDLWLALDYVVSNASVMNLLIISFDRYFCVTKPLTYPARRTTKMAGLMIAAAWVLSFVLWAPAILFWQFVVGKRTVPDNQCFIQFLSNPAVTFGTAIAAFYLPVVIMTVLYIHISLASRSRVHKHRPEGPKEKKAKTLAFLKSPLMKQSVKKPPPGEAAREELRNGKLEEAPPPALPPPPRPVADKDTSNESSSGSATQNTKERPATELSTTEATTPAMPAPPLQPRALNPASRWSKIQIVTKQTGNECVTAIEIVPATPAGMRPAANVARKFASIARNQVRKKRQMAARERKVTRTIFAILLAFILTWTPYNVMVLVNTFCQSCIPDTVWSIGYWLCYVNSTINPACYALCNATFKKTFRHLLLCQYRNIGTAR
Experimental: as §1, §2, §3, §4, §5

[1] = M1-CHO cells, calcium mobilization (FLIPR)
[2] = M1-CHO cells, calcium mobilization (FLIPR), read-out: M1 Efficacy
[3] = M4-CHO cells, calcium mobilization (FLIPR)
[4] = M4-CHO cells, calcium mobilization (FLIPR), read-out: M4 Efficacy
[5] = Table 4, 100% efficacy is the maximum response obtained with the Carbachol control
[6] = Table 4, M1 receptor, calcium mobilization (FLIPR)
[7] = Table 4, M4 receptor, calcium mobilization (FLIPR)
[8] = M1 receptor, calcium mobilization
[9] = M1 receptor, calcium mobilization, read-out: M1 Efficacy
[10] = M4 receptor, calcium mobilization
[11] = M4 receptor, calcium mobilization, read-out: M4 Efficacy
[12] = Table 4, modulating M1 receptor
[13] = Table 4, modulating M4 receptor

Structure (SMILES)	Emax (M1 muscarinic receptor; [5])	Emax (M4 muscarinic receptor; [5])	M1 Activity (M1 muscarinic receptor; [8])	Emax (M1 muscarinic receptor; [9])	M4 Activity (M4 muscarinic receptor; [10])	Emax (M4 muscarinic receptor; [11])	M1 Activity (M1 muscarinic receptor; [12])	M4 Activity (M4 muscarinic receptor; [13])	other results
CCOC(=O)N1CCC(N2CCC3(CC2)CN(C(C)=O)c2ccc(F)cc23)CC1 [compound 413]									EC50 (M1 muscarinic receptor; [1]): < 100 nM; Emax (M1 muscarinic receptor; [2]): < 65%; EC50 (M4 muscarinic receptor; [3]): 100 to 1000 nM; Emax (M4 muscarinic receptor; [4]): < 65%
CCOC(=O)N1CCC(CN2CCC3(CC2)CN(C(C)=O)c2ccc(S(C)(=O)=O)cc23)CC1 [compound 948]	< 25%	< 25%							M1 Activity (M1 muscarinic receptor; [6]): x (activity was measured to be greater than 5.0 μM); M4 Activity (M4 muscarinic receptor; [7]): x (activity was measured to be greater than 5.0 μM)
C#CCCOC(=O)N1CCC(N2CCC3(CC2)CN(C(C)=O)c2ccccc23)CC1 [compound 989]	25 to 100%	< 25%							M1 Activity (M1 muscarinic receptor; [6]): xxx (activity was measured to be less than 2.0 μM); M4 Activity (M4 muscarinic receptor; [7]): x (activity was measured to be greater than 5.0 μM)
Cc1ccc2c(c1)C1(CCN(C3CC4CCC3C4)CC1)CN2C(=O)c1cc(C)on1 (stereo not shown) [compound 208]			xx (activity was measured to be between 0.1 μM and 1.0 μM)	< 65%	x (activity was measured to be greater than 1.0 μM)	< 65%			
CC(=O)N[C@H]1CCC2(CCN(C[C@H]3C[C@H]4C=CC3C4)CC2)c2ccccc21 [compound 652]	25 to 100%	25 to 100%					xxx (activity was measured to be less than 2.0 μM)	xxx (activity was measured to be less than 2.0 μM)	
O=C(N[C@H]1CC2(CCN(CC3CCCCC3)CC2)c2ccccc21)c1ccoc1 [compound 639]	25 to 100%	< 25%					x (activity was measured to be greater than 5.0 μM)	x (activity was measured to be greater than 5.0 μM)	
CC(=O)N[C@H]1CCC2(CCN(CC3CCC3)CC2)c2ccccc21 [compound 636]	25 to 100%	25 to 100%					xxx (activity was measured to be less than 2.0 μM)	xxx (activity was measured to be less than 2.0 μM)	
CS(=O)(=O)N[C@H]1CCC2(CCN(CC3CCCCC3)CC2)c2ccccc21 [compound 773]	25 to 100%	25 to 100%					xxx (activity was measured to be less than 2.0 μM)	xxx (activity was measured to be less than 2.0 μM)	
CCOC(=O)N1CCCC(N2CCC3(CC2)CN(C(=O)N(C)C)c2ccc(F)cc23)CC1 (stereo not shown) [compound 698]	> 100%	> 100%					xxx (activity was measured to be less than 2.0 μM)	xxx (activity was measured to be less than 2.0 μM)	
Clc1ccc2c(c1)C1(CCO2)CCN(C[C@H]2C[C@H]3C=C[C@H]2C3)CC1 [compound 64]			xxx (activity was measured to be less than 0.1 μM)	< 65%	xx (activity was measured to be between 0.1 μM and 1.0 μM)	< 65%			
Clc1ccc2c(c1)C1(CCN(C3CCCCCC3)CC1)CN2 [compound 333]			x (activity was measured to be greater than 1.0 μM)	< 65%	x (activity was measured to be greater than 1.0 μM)	< 65%			
CCOC(=O)N1CCC(N2CCC3(CC2)CN(c2ccc(OC)nn2)c2ccc(F)cc23)CC1 [compound 896]	25 to 100%	25 to 100%							M1 Activity (M1 muscarinic receptor; [6]): xxx (activity was measured to be less than 2.0 μM); M4 Activity (M4 muscarinic receptor; [7]): xxx (activity was measured to be less than 2.0 μM)
CC(=O)NC1CC2(CCN(C[C@@H]3C[C@H]4C=C[C@H]3C4)CC2)c2ccccc21 (stereo partly shown) [compound 408]									EC50 (M1 muscarinic receptor; [1]): < 100 nM; Emax (M1 muscarinic receptor; [2]): 65 to 85%; EC50 (M4 muscarinic receptor; [3]): < 100 nM; Emax (M4 muscarinic receptor; [4]): 65 to 85%
CCOC(=O)N1CCC(N2CCC3(CC2)CN(C(C)=O)c2ccc(-c4ccc(C(C)=O)cc4)cc23)CC1 [compound 221]			xx (activity was measured to be between 0.1 μM and 1.0 μM)	65 to 85%	x (activity was measured to be greater than 1.0 μM)	< 65%			
Clc1ccc2c(c1)C1(CCO2)CCN(C[C@@H]2C[C@H]3C=C[C@H]2C3)CC1 [compound 164]			xx (activity was measured to be between 0.1 μM and 1.0 μM)	> 85%	x (activity was measured to be greater than 1.0 μM)	> 85%			
CCCC#CCOC(=O)N1CC[C@@H](CN2CCC3(CC2)CN(C(=O)N(C)C)c2ccc(F)cc23)C1 [compound 527]	25 to 100%	25 to 100%					xxx (activity was measured to be less than 2.0 μM)	xxx (activity was measured to be less than 2.0 μM)	
